Organism: Rattus norvegicus
Assay: Open TG-GATES - Regimen: Daily Repeat
Assay type: toxicity, organism-based, Sprague-Dawley
Design: regimen Daily Repeat, gender Male, age 6 weeks
Conditions: in vivo, po, 6 mg/kg, route gavage, dose level High; for APTT / Bas / Eos / Fbg / Hb / Ht / Lym / MCH / MCHC / MCV / Mono / Neu / PT / Plat / RBC / Ret / WBC: tissue Blood; for KIDNEY_L / KIDNEY_R / KIDNEY_TOTAL: tissue Kidney; for LIVER: tissue Liver; for A/G / ALP / ALT / AST / BUN / CRE / Ca / Cl / DBIL / GLC / IP / K / LDH / Na / PL / RALB / TBIL / TC / TG / TP / gamma-GTP: tissue Plasma

## O=NN(CCCl)C(=O)NC1CCCCC1 [LOMUSTINE]
72 h, time 3 day
  TERMINAL_BW: 213.1 g
  APTT: 16.1 s
  Bas: 0%
  Eos: 0.6%
  Fbg: 212.8 mg/dL
  Hb: 13 g/dL
  Ht: 38.9%
  Lym: 86%
  MCH: 21.3 pg
  MCHC: 33.3%
  MCV: 64.1 fL
  Mono: 5.6%
  Neu: 8%
  PT: 11.9 s
  Plat: 114.8 x10_4/uL
  RBC: 607.2 x10_4/ul
  Ret: 6.1%
  WBC: 100.8 x10_2/uL
  KIDNEY_L: 1 g
  KIDNEY_R: 1 g
  KIDNEY_TOTAL: 2 g
  LIVER: 10.2 g
  A/G: 2.2
  ALP: 1003.2 IU/L
  ALT: 30.4 IU/L
  AST: 65 IU/L
  BUN: 15.6 mg/dL
  CRE: 0.5 mg/dL
  Ca: 10.8 mg/dL
  Cl: 104.8 meq/L
  DBIL: 0.028 mg/dL
  GLC: 179 mg/dL
  IP: 9 mg/dL
  K: 4.7 meq/L
  LDH: 105.4 IU/L
  Na: 139 meq/L
  PL: 136.6 mg/dL
  RALB: 3.9 g/dL
  TBIL: 0.3 mg/dL
  TC: 75.6 mg/dL
  TG: 56.4 mg/dL
  TP: 5.8 g/dL
  gamma-GTP: 1.8 IU/L
[…], time 7 day
  TERMINAL_BW: 225.8 g
  APTT: 15.7 s
  Bas: 0%
  Eos: 0.4%
  Fbg: 237.4 mg/dL
  Hb: 14.3 g/dL
  Ht: 43.1%
  Lym: 80.6%
  MCH: 20.9 pg
  MCHC: 33.3%
  MCV: 62.9 fL
  Mono: 8.8%
  Neu: 10.2%
  PT: 11.7 s
  Plat: 124 x10_4/uL
  RBC: 686.4 x10_4/ul
  Ret: 3.4%
  WBC: 73.5 x10_2/uL
  KIDNEY_L: 1 g
  KIDNEY_R: 1 g
  KIDNEY_TOTAL: 2.1 g
  LIVER: 10.6 g
  A/G: 1.7
  ALP: 656.6 IU/L
  ALT: 48.4 IU/L
  AST: 97 IU/L
  BUN: 16.6 mg/dL
  CRE: 0.5 mg/dL
  Ca: 11.2 mg/dL
  Cl: 105.6 meq/L
  DBIL: 0.03 mg/dL
  GLC: 170.4 mg/dL
  IP: 7.3 mg/dL
  K: 4.7 meq/L
  LDH: 139.6 IU/L
  Na: 139.2 meq/L
  PL: 156 mg/dL
  RALB: 3.8 g/dL
  TBIL: 0.3 mg/dL
  TC: 98.4 mg/dL
  TG: 55.8 mg/dL
  TP: 6.1 g/dL
  gamma-GTP: 2.6 IU/L
[…], time 14 day
  TERMINAL_BW: 229.7 g
  APTT: 15.8 s
  Bas: 0%
  Eos: 0.6%
  Fbg: 237.4 mg/dL
  Hb: 15.1 g/dL
  Ht: 44.8%
  Lym: 75.4%
  MCH: 20.1 pg
  MCHC: 33.7%
  MCV: 59.8 fL
  Mono: 14.4%
  Neu: 9.6%
  PT: 11.2 s
  Plat: 133.2 x10_4/uL
  RBC: 750 x10_4/ul
  Ret: 1.2%
  WBC: 75.3 x10_2/uL
  KIDNEY_L: 1.1 g
  KIDNEY_R: 1.1 g
  KIDNEY_TOTAL: 2.1 g
  LIVER: 10.5 g
  A/G: 1.6
  ALP: 694.4 IU/L
  ALT: 101.6 IU/L
  AST: 223.6 IU/L
  BUN: 23.4 mg/dL
  CRE: 0.6 mg/dL
  Ca: 11.3 mg/dL
  Cl: 105.8 meq/L
  DBIL: 0.3 mg/dL
  GLC: 159.8 mg/dL
  IP: 6.4 mg/dL
  K: 4.7 meq/L
  LDH: 210.6 IU/L
  Na: 139.6 meq/L
  PL: 236.8 mg/dL
  RALB: 3.8 g/dL
  TBIL: 0.4 mg/dL
  TC: 159.8 mg/dL
  TG: 48.2 mg/dL
  TP: 6.2 g/dL
  gamma-GTP: 4.6 IU/L
[…], time 28 day
  TERMINAL_BW: 202.6 g
  APTT: 15.2 s
  Bas: 0%
  Eos: 0.8%
  Fbg: 255.7 mg/dL
  Hb: 15.6 g/dL
  Ht: 45.3%
  Lym: 58.5%
  MCH: 18.9 pg
  MCHC: 34.5%
  MCV: 54.6 fL
  Mono: 22.5%
  Neu: 18.8%
  PT: 11.6 s
  Plat: 121.1 x10_4/uL
  RBC: 832.2 x10_4/ul
  Ret: 2.5%
  WBC: 114.2 x10_2/uL
  KIDNEY_L: 1.4 g
  KIDNEY_R: 1.3 g
  KIDNEY_TOTAL: 2.7 g
  LIVER: 9.5 g
  A/G: 1.3
  ALP: 520.8 IU/L
  ALT: 153.2 IU/L
  AST: 484.2 IU/L
  BUN: 31.2 mg/dL
  CRE: 0.2 mg/dL
  Ca: 11.3 mg/dL
  Cl: 106.2 meq/L
  DBIL: 3.9 mg/dL
  GLC: 137 mg/dL
  IP: 5.9 mg/dL
  K: 4.8 meq/L
  LDH: 298.8 IU/L
  Na: 142.2 meq/L
  PL: 301 mg/dL
  RALB: 3.5 g/dL
  TBIL: 3.3 mg/dL
  TC: 207.2 mg/dL
  TG: 118 mg/dL
  TP: 6.1 g/dL
  gamma-GTP: 11.8 IU/L

From ChEMBL document CHEMBL3885861, “Open TG-GATES”
